Measurements reported in patent US11970456B1, “Synthesis of thiosemicarbazide analogue as inhibitor of tyrosinase, skin hyperpigmentation, and fruit and/or vegetable browning” (KING SAUD UNIVERSITY, priority 2023, dated 2024).
“Also recorded” adds a separate entry of the source.

Columns and labels:
[1] = tested on: T1, mushroom tyrosinase (EC 1.14.18.1); assay: Tyrosinase inhibition assay and kinetics (o-diphenolase activity, L-DOPA substrate); format: biochemical, Agaricus bisporus (mushroom); conditions: for Type of inhibition: Lineweaver-Burk and Dixon plots
T1 construct: 22 U of mushroom tyrosinase (EC 1.14.18.1)
Procedure: The assay mixture contained sodium phosphate buffer (50 mM; pH 6.8), 22 U of mushroom tyrosinase (EC 1.14.18.1; Sigma Chemical Co., St. Louis, USA), L-DOPA substrate (1 mM), and Compound 2 dissolved in DMSO. The final concentration of DMSO in the assay mixture was 0.5%. The o-diphenolase inhibitory activity of Compound 2 was first screened at a final concentration of 30 μM using Ultrospec 2100 pro spectrophotometer (Amersham Biosciences, UK).
The kinetic assays included a range of substrate (0.25-2.0 mM) and Compound 2 concentrations (0.25, 0.5, 1.0, 2.0 μM). The […] was first incubated with the […] for 15 min. at 25° C. followed by addition of substrate. The reaction was continuously monitored in the spectrophotometer and the enzyme velocity was measured from the linear portion of the curve (7). The kinetics data were analyzed by Grafit 7.0.3 software (Erithacus Software Ltd., Staines, UK) utilizing the Lineweaver Burk plot {1/v versus 1/[S]} and the Ki values were calculated using the Dixon plot {1/v versus [I]}.

| fold more potent than kojic acid (by Ki) ([1]; Ki of kojic acid versus Ki of the compound) [fold] | IC50 ([1]; o-diphenolase activity, L-DOPA substrate, 25° C., pH 6.8, read-out: IC50 (μM ± SEM)) [µM] | Ki ([1]; o-diphenolase activity, L-DOPA substrate, Dixon plot, 25° C., pH 6.8, read-out: Ki (μM ± SEM)) [µM] | melting point [°C] | Compound | Type of inhibition [1] |
| --- | --- | --- | --- | --- | --- |
| 52 | 0.228 | 0.0843 | 258 to 262 | NC(=S)N/N=C/c1ccc2[nH]ncc2c1 [Compound 2, 2-((1H-indazol-5-yl)methylene)hydrazinecarbothioamide] | competitive inhibitor; also recorded: competitive inhibition |
|  |  |  |  | O=c1cc(CO)occ1O [Kojic acid, kojic acid, reference compound] | Competitive |
